This assay concerns the target Caspase-3 (Homo sapiens) (UniProt P42574). The experiment in a line: activators of human procaspase-3 D3A mutant, late-stage follow-up, biochemical, absorbance, PC-3 D3A mutant, powder samples (AID 504816). The settings on record: recombinant PC-3 D3A, Ac-DEVD-pNA absorbance 405 nm.

Active and inactive are the calls of the source.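 The calls were made as follows: active = compounds that boost mutant procaspase-3 substrate cleavage with EC50 of 10000 nM or lower; inactive = EC50 above 10000 nM.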 Where only a bound is given, the exact number is not on record here.

This is an account of results in PubChem BioAssay AID504816 (The Scripps Research Institute Molecular Screening Center, 2011).

Chain of Caspase-3 (Homo sapiens) (P42574 whole entry D9A/D28A/D175A): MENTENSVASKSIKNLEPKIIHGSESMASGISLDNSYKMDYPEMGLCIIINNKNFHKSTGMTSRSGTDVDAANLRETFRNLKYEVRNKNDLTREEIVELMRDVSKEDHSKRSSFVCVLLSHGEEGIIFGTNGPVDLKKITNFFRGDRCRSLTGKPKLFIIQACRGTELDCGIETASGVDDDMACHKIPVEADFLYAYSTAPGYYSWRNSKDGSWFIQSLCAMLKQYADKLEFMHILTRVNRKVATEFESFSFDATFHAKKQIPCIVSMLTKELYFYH

Regarding `COc1ccccc1Nc1nc2c(C)cccc2cc1C#N`, the EC50 is > 85.3 µM (inactive).
Consider `C=CCn1c(=NC(=O)c2cc(-c3cccs3)nc3ccccc23)sc2cc(S(N)(=O)=O)ccc21`, for which the 50% effective concentration (EC50) was 3.19 µM.
In the case of `CC(NC(=O)c1cc2cc([N+](=O)[O-])ccc2oc1=O)C1CCCO1` (centres undefined), the EC50 entry is “inactive”.
The result for `CC(=O)Oc1cccc2c1C(=O)c1c(OC(C)=O)cc(C(=O)O)cc1C2=O` reads “inactive”.
